Source: patent US7417072B2, “Blockade of Pin1 prevents cytokine production by activated immune cells” (Wisconsin Alumni Research Foundation, priority 2005, dated 2008)
Residues, ends and D or L forms follow the SMILES beside them. *: point of attachment. Cbz = O=C(OCc1ccccc1)*

Assays:
Pin1 and AUF1 = Pin1 and AUF1 protein levels in eosinophils, immunoprecipitation/immunoblot; type: cell-based, human; settings: MG132 4 h, juglone 10 min before harvest
Procedure: In FIG. 3A, Eos were untreated (−/−), treated with HA or HA plus juglone (1 μM) for 4 h. Cell lysates were immunoprecipitated with anti-Pin1 antibody followed by immunoblotting with anti-AUF1 or anti-Pin1 antibodies. Nonimmune IgG was used as a negative control while HeLa cell extracts were used as a positive control (“C”). In FIG. 3B, immunoblots of cytoplasmic protein from Eos treated for 4 h with HA or co-treated with juglone (1 μM) for the indicated times before harvest. In FIG. 3C, cells were untreated (−/−/−) treated for 4 h with HA alone, HA plus juglone (10 min before harvest) or HA plus 20 μM or 100 μM MG132 (4 h) plus juglone (10 min before harvest), Cell lysates were immunoblotted with the antibodies shown. Lane “C” is a HeLa cell lysate used as a positive control. In FIG. 3D, Eos were treated as described for FIG. 3C except that only 20 μM MG132 was used.
The effects of HA and juglone treatment on the interactions between AUF1 and Pin1 were then examined.
To address this possibility, Eos were exposed to the proteasome inhibitor MG132 (4 h) (Sigma) and juglone (10 min before harvest) and lysates immunoblotted.

GM-CSF mRNA = GM-CSF mRNA levels in eosinophils, RT-PCR/Southern blot; type: cell-based, human
Procedure: In FIG. 2A, Eos were treated as in FIG. 1A for 4 h prior to lysis with TriReagent and RT-PCR/Southern blot analysis for GM-CSF mRNA. Gel electrophoresis of GM-CSF products and control β-actin RT-PCR products are shown. In FIG. 2B, cells were treated with HA for 4 h and then juglone (1 μM) was added at the indicated times before harvest and RT-PCR analysis, where GM-CSF or β-actin mRNA expression were analyzed as above. In FIG. 2B, “C,” refers to PCR reaction mixtures without added cDNA. In FIG. 2C, cells were untreated (−/− lanes on left) or incubated for 4 h with HA atone, HA plus varying concentrations (160 or 320 nM) of TAT-conjugated green fluorescent protein (TAT-GFP) or TAT-conjugated Pin1 domains (TAT-wwPin1) and analyzed as in FIG. 2A. […] In FIG. 2E, eosinophils were treated for 4 h with HA or HA plus juglone (1 μM, 1 h prior to harvest) prior to the addition of actinomycin D (5 μg/ml) and cells harvested at the indicated times for RT-PCR/Southern blot analysis. In these experiments, PCR was performed for 30 (HA-treated cells) or 33 (HA plus juglone-treated cells) cycles, respectively.
In FIG. 3A, Eos were untreated (−/−), treated with HA or HA plus juglone (1 μM) for 4 h. […] In FIG. 3C, cells were untreated (−/−/−) treated for 4 h with HA alone, HA plus juglone (10 min before harvest) or HA plus 20 μM or 100 μM MG132 (4 h) plus juglone (10 min before harvest), Cell lysates were immunoblotted with the antibodies shown. […] In FIG. 3D, Eos were treated as described for FIG. 3C except that only 20 μM MG132 was used. Cells were lysed with TriReagent for total RNA isolation prior to RT-PCR/Southern blot analysis.
To characterize the mechanisms connecting hyaluronic acid (HA) activation to GM-CSF expression and eosinophil survival, GM-CSF mRNA decay was measured.
In order to assess this possibility, GM-CSF mRNA levels were measured by RT/PCR-Southern blot hybridization experiments.

p45 and p40 AUF1 = experiment: Anti-phosphoserine immunoblot of eosinophil cytoplasmic extracts; type: cell-based, human; settings: 50 μM added 30 min before harvest
Procedure: Cells were untreated (−/−/−), treated with HA alone (4 h), HA (4 h) plus juglone (1 μM added 10 min before harvest) or HA plus Erk inhibitor PD98059 (PD) (50 μM added 30 min before harvest). Cytoplasmic extracts were immunoblotted with anti-phosphoserine, anti-AUF1 or anti-Pin1 antibody as shown.
As the association of Pin1 and AUF1 was unaffected by HA (FIG. 2A) despite the loss of GM-CSF mRNA from the protein complex (FIGS. 4A & 4B) it was hypothesized that either AUF1 and/or Pin1 was modified by HA mediated signaling. Phorbol esters trigger the dephosphorylation of Ser^83 and Ser^87 of p40 AUF1 was concomitant with the stabilization of IL-1β and TNF-α mRNAs (Wilson et al. 2003, J. Biol. Chem. 278:33029-33038). Therefore, cytoplasmic extracts from control or HA-treated Eos were immunoblotted with anti-phosphoserine, anti-AUF1 or anti-Pin1 antibodies.

[1] = system: peripheral blood mononuclear cells (PBMC); experiment: Cytokine mRNA accumulation in activated PBMC, northern blot / qPCR; type: cell-based, human; settings: mitogen stimulated, 4 h, juglone 1 μM
Procedure: PBMCs were isolated from healthy donors by Percoll® gradient centrifugation of heparinized whole blood. Cells were cultured in RPMI 1640 media supplemented with 10% fetal calf serum (FCS) at 1×10^6 cells/ml prior to the addition of PMA (20 ng/ml) and PHA (5 ug/ml) (P/P) or PMA, PHA and juglone (1 uM) (P/P/J); “R” designates the control lane without addition of additional substances. After 4 h, cells were lysed and 10 ug of recovered RNA northern blotted and hybridized with probes shown along the left side of the Figure. “A” and “B” refer to results with 2 different donors.
After 4 h, RNA was isolated from the cells and used for quantitative PCR (qPCR) for the cytokine mRNAs shown. Data are presented as % inhibition in samples with juglone.
Thus peripheral blood mononuclear cells (˜70% T cells, 20% B cells, 5-10% macrophages/monocytes, obtained by phlebotomy of normal donors) were incubated with optimal concentrations of mitogens (phorbol ester (20 ng/ml), and PHA (40 ug/ml), both from Sigma) and cytokine in RNA levels were measured by northern blot or real time RT/PCR (qPCR) and cytokine secretion by ELISA. […] IL-2, IL-8, TNFα, IFNγ and GM-CSF mRNAs were evaluated first, since these cytokines all share 3′ UTR AU-rich elements with GM-CSF.

rat splenocytes [2] = experiment: Splenocyte viability, propidium iodide flow cytometry; type: cell-based; settings: 24 hours
Procedure: In FIG. 14A, mRNAs for IFN-γ, IL-2, TNF-α, CXCL-10 and TGF-β were analyzed in rat splenocytes by reverse transcription, qPCR. The ionomycin/PMA stimulated sample was normalized to 100 and others expressed as a % of that value. […] Cells were stained with propidium iodide and analyzed by flow cytometry. The results shown are representative of 3 experiments. […] The data are averages±SEM of 3 independent experiments using splenocytes of untreated healthy animals.
Therefore, Pin1 blockade suppressed proliferation as well as the elaboration of proinflammatory cytokines by activated rat splenocytes.

[3] = system: cytokine expression and immune cells of transplant recipients; experiment: Immunologic analysis of lung transplant recipients (blood, spleen, BAL, lung, mediastinal lymph nodes)
Procedure: Splenocytes (2000) from control or juglone-treated transplant recipients were activated with ionomycin (1 μM) and PMA (20 ng/ml) for 3 days prior to addition of anti-IL-2 or IFN gamma antibodies and color development and counting.
Spleens were processed 8 days after transplantation from untreated or juglone-treated rats for mRNA isolation and RT-qPCR for IL-2, IFN or TNF alpha. Juglone treated mRNA levels were set to 100% in these analyses.
Data are shown as the average±SEM (n=4 rats) of 3 experiments 7 days after transplantation.
The values in untreated controls were normalized to 100% and data shown represent % change in juglone treated samples. The data shown are an average±SEM (n=4 rats) of 4 experiments. * denotes p<0.05 from control samples. […] Values are normalized to control (100%).
Cytokine elaboration was measured by control, activated or juglone treated activated splenocytes as follows. IFNγ secretion by splenocytes was evaluated by ELISPOT (R&D Systems, Minneapolis, Minn.) as described by the manufacturer. Triplicates of serial dilutions of cells were cultured with PMA (10 ng/ml) plus iononycin (1 μM) for 48 hours. The concentration of IFN-γ and IL-2 in the BAL fluid was determined using an ELISA kit (R&D Systems).
Next, immunologic changes between control and juglone treated transplant recipients were analyzed. […] Splenocytes harvested from control versus untreated animals (8 days after transplant) were stimulated with optimal concentrations of PMA (20 ng/ml) and ionomycin (1 μM) and analyzed by Elispot for IL-2 and IFNγ expression.
Levels of IFN-γ and IL-2 were as measured, as described above, in the animals one week after transplantation.
Cytokine mRNAs from splenocytes in juglone treated animals were also examined.

purified T cells = experiment: Cytokine mRNA in purified T cells activated with anti-CD3/anti-CD28, qPCR; type: cell-based, human; settings: anti-CD3/anti-CD28, juglone 1 μM added along with antibody, 4 hours
Procedure: Purified T cells were prepared by negative selection of PBMC (T cells>98% pure based on flow cytometry) and activated with a combination of anti-CD3 and anti-CD28 antibodies. Juglone was added at 0.1 or 1 μM as shown along with the antibodies or at various times (as shown) at 1 μM after the antibodies.
Purified T cells were prepared by negative selection of PBMC (T cells>98% pure based on flow cytometry) and activated with a combination of anti-CD3 and anti-CD28 antibodies. Juglone was added at 0.1 or 1 μM as shown along with the antibodies. After 4 hours total incubation time, cells were lysed and mRNA used for RT-qPCR for the cytokine mRNAs shown “−” refers to control cells activated but not exposed to juglone.
As PBMC are heterogeneous, this cell population was fractionated into T cells by negative selection (as described in Sedgwick et al., 2003, Am J Respir Cell Mol Biol. 29:702-9). […] These were then activated with anti-CD3 and anti-CD28 antibodies (obtained from Santa Cruz Biotech), and the effects of Pin1 blockade on cytokine gene expression assessed by qPCR. […] Juglone (1 μM) added along with antibody reduced GM-CSF mRNA by between 80-95%.

rat splenocytes [4] = experiment: IFN-γ and IL-2 secretion by activated splenocytes, ELISA; type: cell-based; settings: I/P stimulated spleen cells
eosinophils (Eos) = experiment: Eosinophil survival, cell viability at day 4; type: cell-based, human; settings: for Eos survival: HA-activated Eos
Procedure: In FIG. 2C, cells were untreated (−/− lanes on left) or incubated for 4 h with HA atone, HA plus varying concentrations (160 or 320 nM) of TAT-conjugated green fluorescent protein (TAT-GFP) or TAT-conjugated Pin1 domains (TAT-wwPin1) and analyzed as in FIG. 2A. In FIG. 2D, control (−/−), HA (100 μg/ml), rhGM-CSF (100 pg/ml), HA or GM-CSF plus TAT-GFP (160 nM) or HA or GM-CSF plus TAT-wwPin1 (160 nM) treated Eos were cultured for 4 days prior to cell viability assay as disclosed in Example 2 below.
To this end, peripheral blood was obtained by venipuncture from patients who had allergic rhinitis or asthma; patients were not symptomatic at the time blood was obtained. Peripheral blood eosinophils (Eos) were purified using a negative immunomagnetic procedure as described in Esnault and Malter (2001, J. Immunol. 166:4658-96). After isolation, Eos were maintained in vitro in RPMI 1640 medium (Gibco Life Technologies, Grand Island, N.Y.) with 10% fetal calf serum (Gibco Life Technologies, Grand Island, N.Y.) and 50 μg/ml gentamicin (Gibco Life Technologies, Grand Island, N.Y.) at 37° C. in 5% CO2, and were metabolically labeled and activated by treatment under these culture conditions with 100 μg/ml HA (˜5 hours total, see below).
The mechanism of Eos death was evaluated by western blotting.

CC(C)C[C@@H](C=O)NC(=O)[C@H](CC(C)C)NC(=O)[C@H](CC(C)C)NC(=O)OCc1ccccc1 [MG132] (Cbz-Leu-Leu-Leu-aldehyde)
Juglone-induced Pin1 degradation (Pin1 and AUF1): only partially prevented Pin1 degradation | Juglone-induced p45, p42 and p40 AUF1 degradation (Pin1 and AUF1): completely blocked | GM-CSF mRNA in Eos treated with MG132 alone (GM-CSF mRNA): no observable effect | GM-CSF mRNA in Eos treated with HA, MG132 and juglone (GM-CSF mRNA; 20 μM MG132 4 h, juglone 10 min before harvest): antagonized juglone-induced decreases of GM-CSF mRNA

COc1cccc(-c2cc(=O)c3ccccc3o2)c1N [PD98059]
GM-CSF mRNA levels in HA-treated Eos (GM-CSF mRNA; HA 4 h, CsA 1.6 μM or 16 μM, TAT proteins 160 or 320 nM): failed to accumulate | Time to effect on GM-CSF mRNA after addition of the inhibitor (GM-CSF mRNA; HA-activated Eos): 10 to 30 min | HA-increased phosphorylation of p45 and p40 AUF1 (p45 and p40 AUF1): partially antagonized

O=C1C=CC(=O)c2c(O)cccc21 [juglone]
Suppression of cytokine mRNAs by qPCR [1]: 65-90% | Apoptosis in I/P versus I/P/juglone treated splenocytes (rat splenocytes [2]): equivalent levels of apoptosis | Reduction in number of splenocytes expressing IL-2 and IFNγ by Elispot ([3]; 8 days after transplant, PMA 20 ng/ml and ionomycin 1 μM): 60-70% | Absolute counts and ratios of peripheral blood CD4+, CD8+ cells and γ/δ lymphocytes ([3]; after 1 week of juglone): largely unaffected | Fewer total BAL cells than untreated controls ([3]; juglone 1 mg/kg): 50% | IL-2 and IFN-gamma mRNA in lungs compared with no treatment controls ([3]; juglone 1 mg/kg): about 35% | Reduction of GM-CSF mRNA in purified T cells (purified T cells): 80-95% | Concentration of maximal effect on cytokine secretion (rat splenocytes [4]): 1 µM | Eos survival (eosinophils (Eos); 0.1 μM): 5% | Eos survival (eosinophils (Eos); 1.0 μM): 5%

C=CC[C@@H]1/C=C(\C)C[C@H](C)C[C@H](OC)[C@H]2O[C@@](O)(C(=O)C(=O)N3CCCC[C@H]3C(=O)O[C@H](/C(C)=C/[C@@H]3CC[C@@H](O)[C@H](OC)C3)[C@H](C)[C@@H](O)CC1=O)[C@H](C)C[C@@H]2OC [FK506]
Effect on HA-enhanced Eos survival (eosinophils (Eos); HA 100 μg/ml, TAT proteins 160 nM): no effect
